Laboratory results taken from US20190358242A1, “COMPOSITIONS, KITS, AND METHODS TO INDUCE ACQUIRED CYTORESISTANCE USING STRESS PROTEIN INDUCERS” (FRED HUTCHINSON CANCER RESEARCH CENTER, priority 2017, published 2019).
Several values for one entry are separate records, joined by “and”; a condition that tells them apart may be missing. Equal values may be shown once.

Columns and labels:
Type in all cases: in vivo, CD-1 mice
[1] = system: HO-1 mRNA; test: Renal HO-1 mRNA (RT-PCR, HO-1/GAPDH) after IV myoglobin, SnPP or both; details: kidney, 4 hr post IV injection
Excerpt: The Glycerol Model of AKI. This is a widely used model of rhabdomyolysis-induced AKI that has been employed worldwide for 50 years. The model was used to test whether prophylactic interventions confer protection against AKI. Basically, the protocol is as follows: Male CD-1 mice (35-45 grams), obtained from Charles River Laboratories, Wilmington, Mass. were studied. Mice were maintained under standard vivarium conditions and generally housed for 1-3 weeks prior to study. The mice were placed in a cylindrical restraining cage, and then were given a tail vein injection of the test substances (see below) or test substance vehicle. The mice were then returned to their cages. Eighteen hours (hrs) later, the mice were briefly anesthetized by isoflurane inhalation, and given an intramuscular injection of hypertonic (50%) glycerol in a dose of 9 ml/Kg body weight. The dose is divided in two, with half injected into the muscle of each of the hind limbs. The mice were then returned to their cages. Eighteen hrs later, the mice were deeply anesthetized with pentobarbital (50-100 mg/Kg), the abdominal cavity was opened through a midline abdominal incision, a blood sample was obtained from the abdominal vena cava and the kidneys were resected. A kidney cross section was obtained and fixed in formalin for subsequent histologic analysis. The terminal blood samples were analyzed for BUN and creatinine, using commercially available assay kits. The remaining kidney tissue was subjected to cortical dissection, and the cortical tissues were then extracted for protein and RNA. The protein samples were saved for analysis of HO-1 levels, and the RNA samples were subjected to RT-PCR to quantify HO-1 mRNA as well as levels of other stress gene mRNAs (e.g. NGAL, haptoglobin, hemopexin, hepicidin).
Myoglobin+SnPP: To 5 mg of dry myoglobin was added 0.9 ml of PBS+0.1 ml of a stock SnPP solution (50 umole/ml). The resulting final concentrations were 5 mg/ml myoglobin+5 umoles/ml of SnPP. The tail vein was injected with 200 ul of this solution, which equals 1 mg myoglobin+1 umole SnPP. […]
[…] To confirm that the myoglobin+SnPP has a synergistic effect in inducing HO-1 mRNA and HO-1 protein levels, each of the above combinations have been administered alone via tail vein injection. […] For additional information regarding methods, see Zager et al., Am J Physiol Renal Physiol. 2014 Jul. 30. Pii.

[2] = system: glycerol model of rhabdomyolysis-induced AKI; test: Glycerol model of rhabdomyolysis-induced AKI; details: IV pretreatment 18 h before glycerol; 18 hours after glycerol
Description: Assessments of cytoresistance. Glycerol model of rhabdomyolysis-induced AKI. Twenty mice were divided into 4 equal groups (controls, mice treated with N-Mgb, SnPP, and mice treated with N-Mgb+SnPP tail vein injections) as described previously. 18 hours later, the mice were briefly anesthetized with isoflurane and immediately injected with 9 mL/kg of 50% glycerol, administered in equally divided doses into each hind limb. At 18 hours after glycerol injection, the mice were anesthetized with pentobarbital, the abdomen was opened, a blood sample for BUN and creatinine assessments was obtained from the vena cava, and the kidneys were resected. The control post-glycerol group and the N-Mgb+SnPP-pretreated glycerol group had kidney sections stained with H&E.
To assess whether the previously determined plasma and kidney HO-1 and haptoglobin levels correlated with degrees of cytoresistance, additional mice were injected with 0, 2.5, or 5 mg of N-Mgb […] of SnPP (n=3 mice per group). Eighteen hours later, all mice were subjected to the glycerol AKI model as described previously. Severities of AKI were determined 18 hours after glycerol injection by BUN and plasma creatinine analyses.
Calculations and statistics. All values are given as the mean […] standard error of the mean. Statistical comparisons were made by unpaired Student's t test. […]

[3] = system: maleate model of AKI; test: Maleate model of AKI (800 mg/Kg), FeS/SnPP and FeS/B12; details: IV 18 hrs before 800 mg/Kg maleate; 18 hrs post maleate; 1 mg FeS, 1 μmole SnPP or B12
Excerpt: Effects of Fe sucrose (FeS)/tin protoporphyrin (SnPP) on AKI severity. Maleate model of AKI. When injected into rodents, maleate undergoes relatively selective proximal tubule cell uptake via organic anion transporters. Once intracellular accumulation occurs, maleate is a preferred substrate for succinyl-CoA:3-oxoacid CoA transferase. […] Ample levels of CoA are essential for fatty acid “activation”, allowing for their subsequent metabolism through the Krebs cycle, yielding ATP. In the absence of this process, proximal tubule ATP depletion and cell injury result. Additionally, maleate conjugates the sulfhydryl group of glutathione (GSH), culminating in GSH depletion and potential oxidant tubular stress.
The following experiment tested whether FeS, SnPP or combined FeS+SnPP can mitigate this form of acute kidney injury (AKI). Twenty seven mice were subjected to 200 μL IV tail injections of one of the following: 1) vehicle (phosphate buffered saline, PBS; n, 10); 2) 1 mg FeS (American Regent (Shirley, N.Y.; n, 3); 3) 1 μmole SnPP (Frontier Scientific, Logan, Utah; n 7), or FeS+SnPP, n, 7). […] The severity of kidney injury was assessed by determining plasma blood urea nitrogen (BUN) and plasma creatinine (PCr) concentrations.
Maleate model of AKI. […] The severity of AKI was determined 18 hrs post maleate injection by terminal BUN and PCr assessments.

SMILES: C=Cc1c2[n-]c(c1C)/C=c1\[n-]/c(c(C)c1C=C)=C\c1[n-]c(c(CCC(=O)O)c1C)/C=c1\[n-]c(c(C)c1CCC(=O)O)=C2.[Sn+4] [SnPP, tin protoporphyrin]
- HO-1/GAPDH mRNA, Average [1]: 6.94
- HO-1/GAPDH mRNA, individual mice [1]: 9.72 and 8.25 and 6.95 and 2.85
- Protection against glycerol-induced AKI judged by BUN/creatinine levels [2]: virtually no effect
- Severity of maleate-induced AKI (BUN/PCr), in words [3]: Neither SnPP alone nor FeS alone significantly altered the severity of renal injury
